Assay results reported in patent US20240083861A1, “HSD17B13 INHIBITORS AND USES THEREOF” (FL2022-001, Inc., priority 2020, published 2024).

Target: T1, Recombinant human HSD17B13 enzyme (Homo sapiens, UniProt Q7Z5P4)
T1 sequence (Q7Z5P4 20-300): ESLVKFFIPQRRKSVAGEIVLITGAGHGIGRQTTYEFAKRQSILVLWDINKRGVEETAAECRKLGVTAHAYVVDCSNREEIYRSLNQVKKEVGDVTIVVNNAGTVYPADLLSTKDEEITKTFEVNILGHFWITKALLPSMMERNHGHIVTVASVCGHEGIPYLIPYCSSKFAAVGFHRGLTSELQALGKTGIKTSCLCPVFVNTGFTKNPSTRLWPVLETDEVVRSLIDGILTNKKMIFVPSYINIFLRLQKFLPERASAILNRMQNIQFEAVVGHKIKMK
Test: HSD17b13 NAD(P)H-Glo biochemical assay
Details: for IC50: 50 uM estradiol, 1 mM NAD+, NAD(P)H-Glo luminescence, read-out: HSD17β13 IC50; for inhibition at 30 µM: at 30 uM compound, read-out: HSD17β13 % inhibition at 30 uM
In short: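 Recombinant human HSD17B13 in 20 mM Tris pH7.4 with 0.002% Tween-20 and 0.02% BSA was preincubated with inhibitor for 20 minutes at RT. The reaction ran 3 hours at 37° C with 50 uM estradiol and 1 mM NAD+ (final). NADH formed was detected by NAD(P)H-Glo luminescence after 1 hour at RT.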

`Cn1nc(-c2cc(C(F)(F)F)c(F)c(O)c2F)c2cnc(N3CCC4(CCCO4)CC3)nc21` [Compound 18.99, 2,6-Difluoro-3-(1-methyl-6-(1-oxa-8-azaspiro[4.5]decan-8-yl)-1H-pyrazolo[3,4-d]pyrimidin-3-y1)-5-(trifluoromethyl)phenol] showed an IC50 of less than 100 nM.

For `Cn1nc(-c2cc(C(F)(F)F)c(F)c(O)c2F)c2cnc(N3CCOCC3)nc21` [Compound 18.132, 2,6-Difluoro-3-(1-methyl-6-morpholino-1H-pyrazolo[3,4-d]pyrimidin-3-y1)-5-(trifluoromethyl)phenol], the IC50 was less than 100 nM.

`N#CCC1(NC(=O)c2ccc3oc(-c4cc(C(F)(F)F)c(F)c(O)c4F)nc3c2)CCC1` [Compound 1.29, N-(1-(Cyanomethyl)cyclobutyl)-2-(2,4-difluoro-3-hydroxy-5-(trifluoromethyl)phenyl)benzo[d]oxa-zole-5-carboxamide] showed an IC50 of less than 100 nM.

Work on `Cn1nc(-c2cc(C(F)(F)F)c(F)c(O)c2F)c2cnc(N3CCNC4(CC4)C3=O)cc21` [Compound 9.53, 7-(3-(2,4-Difluoro-3-hydroxy-5-(trifluoromethyl)phenyl)-1-methyl-1H-pyrazolo[4,3-c]pyridin-6-yl)-4,7-diazaspiro[2.5]octan-8-one] yielded an IC50 of 100 to 1000 nM.

`O=C(NC1COC1)c1ccc2oc(-c3cc(C(F)(F)F)c(F)c(O)c3F)nc2c1` [Compound 1.19, 2-(2,4-Difluoro-3-hydroxy-5-(trifluoromethyl)phenyl)-N-(oxetan-3-yl)benzo[d]oxazole-5-carboxamide] showed an IC50 of 100 to 1000 nM.

Work on `CCOC1(C)CCN(c2ncc3c(-c4cc(C(F)(F)F)c(F)c(O)c4F)nn(C)c3n2)CC1` [Compound 18.68, 3-(6-(4-Ethoxy-4-methylpiperidin-1-y1)-1-methyl-1H-pyrazolo[3,4-d]pyrimidin-3-y1)-2,6-difluoro-5-(trifluoromethyl)phenol] yielded an IC50 of less than 100 nM.

For `Cn1nc(-c2cc(C(F)(F)F)c(F)c(O)c2F)c2cnc(N3CCN(S(C)(=O)=O)C4(CCOCC4)C3)nc21` [Compound 18.85, 2,6-Difluoro-3-(1-methyl-6-(1-(methylsulfony1)-9-oxa-1,4-diazaspiro[5.5]undecan-4-y1)-1H-pyrazolo[3,4-d]pyrimidin-3-y1)-5-(trifluoromethyl)phenol], the IC50 was less than 100 nM.

`COC1(CN(C)c2cc3c(cn2)c(-c2cc(C(F)(F)F)c(F)c(O)c2F)nn3C)CCC1` [Compound 9.86, 2,6-Difluoro-3-(6-(((1-methoxycyclobutyl)methyl)(methyl)amino)-1-methyl-1H-pyrazolo[4,3-c]pyridin-3-yl)-5-(trifluoromethyl)phenol] showed an IC50 of less than 100 nM.

For `Oc1cc(-c2nc3ccc(-c4ccc(O)c(Cl)c4)cc3o2)ccc1F` [Compound 3.01, 2-Chloro-4-(2-(4-fluoro-3-hydroxyphenyl)benzo[d]oxazol-6-yl)phenol], the IC50 was 100 to 1000 nM.

`Cn1nc(-c2cc(C(F)(F)F)c(F)c(O)c2F)c2cnc(N3CCOC(c4ccccn4)C3)nc21` (stereo not drawn) [Compound 18.48, 2,6-Difluoro-3-(1-methyl-6-(2-(pyridin-2-yl)morpholino)-1H-pyrazolo[3,4-d]pyrimidin-3-y1)-5-(trifluoromethyl)phenol] showed an IC50 of less than 100 nM.

For `CC(C)N1CCN(c2ncc3c(-c4cc(C(F)(F)F)c(F)c(O)c4F)nn(C)c3n2)CC1` [Compound 18.73, 2,6-Difluoro-3-(6-(4-isopropylpiperazin-1-yl)-1-methyl-1H-pyrazolo[3,4-d]pyrimidin-3-yl)-5-(trifluoromethyl)phenol], the IC50 was 100 to 1000 nM.

In the case of `CC(C)C1(O)CCN(c2ncc3c(-c4cc(C(F)(F)F)c(F)c(O)c4F)nn(C)c3n2)CC1` [Compound 18.67, 1-(3-(2,4-Difluoro-3-hydroxy-5-(trifluoromethyl)phenyl)-1-methyl-1H-pyrazolo[3,4-d]pyrimidin-6-yl)-4-isopropylpiperidin-4-ol], the IC50 is reported as less than 100 nM.

For `Oc1cc(-c2n[nH]c3nc(N4CC5(CCOCC5)C4)cnc23)cc(C(F)(F)F)c1F` [Compound 10.06, 5-(6-(7-Oxa-2-azaspiro[3.5]nonan-2-yl)-1H-pyrazolo[3,4-b]pyrazin-3-yl)-2-fluoro-3-(trifluoromethyl)phenol], the IC50 was 100 to 1000 nM.

`CC1(NC(=O)c2ccc3oc(-c4cc(C(F)(F)F)c(F)c(O)c4F)nc3c2)CCC1` [Compound 1.23, 2-(2,4-Difluoro-3-hydroxy-5-(trifluoromethyl)phenyl)-N-(1-methylcyclobutyl)benzo[d]oxazole-5-carboxamide] gave an IC50 of less than 100 nM.

Molecule `Cn1nc(-c2cc(C(F)(F)F)c(F)c(O)c2F)c2cnc(N3CC4CCC3CO4)cc21` (stereo not drawn) [Compound 9.28, 3-(6-(2-Oxa-5-azabicyclo[2.2.2]octan-5-yl)-1-methyl-1H-pyrazolo[4,3-c]pyridin-3-yl)-2,6-difluoro-5-(trifluoromethyl)phenol] has an IC50 of less than 100 nM.

`O=C(NC1CCC1)c1ccc2oc(-c3cc(O)cc(C(F)(F)F)c3F)nc2c1` [Compound 23, N-Cyclobuty1-2-(2-fluoro-5-hydroxy-3-(trifluoromethyl)phenyl)benzo[d] oxazole-5-carboxamide] showed an inhibition at 30 µM of 20%.

For `Cn1nc(-c2cc(C(F)(F)F)c(F)c(O)c2F)c2cnc(N3CCOCC3CO)nc21` (stereo not drawn) [Compound 18.01, 2,6-Difluoro-3-(6-(3-(hydroxymethyl)morpholino)-1-methyl-1H-pyrazolo[3,4-d]pyrimidin-3-y1)-5-(trifluoromethyl)phenol], the IC50 was less than 100 nM.

`Cn1nc(-c2cc(C(F)(F)F)c(F)c(O)c2F)c2cnc(N3CCCC(c4cncnc4)C3)nc21` (stereo not drawn) [Compound 18.90, 2,6-Difluoro-3-(1-methyl-6-(3-(pyrimidin-5-y1)piperidin-1-yl)-1H-pyrazolo[3,4-d]pyrimidin-3-y1)-5-(trifluoromethyl)phenol] showed an IC50 of less than 100 nM.

Molecule `Cn1nc(-c2cc(C(F)(F)F)c(F)c(O)c2F)c2cnc(N3CCCC34CCOCC4)cc21` [Compound 9.99, 2,6-Difluoro-3-(1-methyl-6-(8-oxa-1-azaspiro[4.5]decan-1-yl)-1H-pyrazolo[4,3-c]pyridin-3-yl)-5-(trifluoromethyl)phenol] has an IC50 of less than 100 nM.

With `Cn1nc(-c2cc(C(F)(F)F)c(F)c(O)c2F)c2c(F)cc(N3CCOCC34CC4)cc21` [Compound 9.118, 2,6-Difluoro-3-(4-fluoro-1-methyl-6-(7-oxa-4-azaspiro[2.5]octan-4-yl)-1H-indazol-3-yl)-5-(trifluoromethyl)phenol] the IC50 was less than 100 nM.

`Cn1nc(-c2cc(C(F)(F)F)c(F)c(O)c2F)c2cnc(N3CCOCC34CCC4)nc21` [Compound 9.110, 2,6-Difluoro-3-(1-methyl-6-(8-oxa-5-azaspiro[3.5]nonan-5-yl)-1H-pyrazolo[3,4-d]pyrimidin-3-yl)-5-(trifluoromethyl)phenol] was tested, and the IC50 was less than 100 nM.

For `Cn1nc(-c2cc(C(F)(F)F)c(F)c(O)c2F)c2cnc(N3CCN(C(=O)O)C(=O)C3)cc21` [Compound 9.79, 4-(3-(2,4-Difluoro-3-hydroxy-5-(trifluoromethyl)phenyl)-1-methyl-1H-pyrazolo[4,3-c]pyridin-6-yl)-2-oxopiperazine-1-carboxylic acid], the IC50 was 1000 to 30000 nM.

In the case of `CS(=O)(=O)N1CCN(c2ccc3c(-c4ccc(F)c(O)c4F)n[nH]c3c2)CC1` [Compound 11.01, 2,6-Difluoro-3-(6-(4-(methylsulfonyl)piperazin-1-yl)-1H-indazol-3-yl)phenol], the inhibition at 30 µM is reported as 41%.

Molecule `Cn1nc(-c2cc(C(F)(F)F)c(F)c(O)c2F)c2cnc(N3CCOCCC34CC4)cc21` [Compound 9.70, 2,6-Difluoro-3-(1-methyl-6-(7-oxa-4-azaspiro[2.6]nonan-4-yl)-1H-pyrazolo[4,3-c]pyridin-3-yl)-5-(trifluoromethyl)phenol] has an IC50 of less than 100 nM.

With `Cn1nc(-c2cc(C(F)(F)F)c(F)c(O)c2F)c2cnc(N3CCS(=O)(=O)CC3(C)C)cc21` [Compound 9.125, 4-(3-(2,4-Difluoro-3-hydroxy-5-(trifluoromethyl)phenyl)-1-methyl-1H-pyrazolo[4,3-c]pyridin-6-yl)-3,3-dimethylthiomorpholine 1,1-dioxide] the IC50 was 100 to 1000 nM.

For `Cn1nc(-c2cc(C(F)(F)F)c(F)c(O)c2F)c2cnc(N(C3CCOCC3)C3CC3)cc21` [Compound 9.129, 3-(6-(Cyclopropyl(tetrahydro-2H-pyran-4-yl)amino)-1-methyl-1H-pyrazolo[4,3-c]pyridin-3-yl)-2,6-difluoro-5-(trifluoromethyl)phenol], the IC50 was less than 100 nM.

`CS(=O)(=O)N1CCN(c2cc3nc(-c4cc(O)c(F)c(F)c4)oc3cc2Cl)CC1` [Compound 5, 5-(6-Chloro-5-(4-(methylsulfonyl)piperazin-1-yl)benzo[d]oxazol-2-yl)-2,3-difluorophenol] showed an IC50 of 100 to 1000 nM.

`CN1CCN(c2ncc3c(-c4cc(C(F)(F)F)c(F)c(O)c4F)nn(C)c3n2)C(c2ccccc2)C1` (stereo not drawn) [Compound 18.53, 2,6-Difluoro-3-(1-methyl-6-(4-methyl-2-phenylpiperazin-1-yl)-1H-pyrazolo[3,4-d]pyrimidin-3-yl)-5-(trifluoromethyl)phenol] was tested, and the IC50 was less than 100 nM.

`O=C(NC12CC(C1)C2)c1ccc2oc(-c3cc(C(F)(F)F)cc(O)c3F)nc2c1` [Compound 1.12, N-(Bicyclo[1.1.1]pentan-1-yl)-2-(2-fluoro-3-hydroxy-5-(trifluoromethyl)phenyl)benzo[d]oxa-zole-5-carboxamide] was tested, and the IC50 was less than 100 nM.

`Cn1nc(-c2cc(C(F)(F)F)c(F)c(O)c2F)c2cnc(N3CCN(S(C)(=O)=O)CC3)cc21` [Compound 12.05, 2,6-Difluoro-3-(1-methyl-6-(4-(methylsulfonyl)piperazin-1-yl)-1H-pyrazolo[4,3-c]pyridin-3-yl)-5-(trifluoromethyl)phenol] showed an IC50 of less than 100 nM.
